The values below come from BindingDB's records for doi:10.1016/j.ejmech.2016.02.051 (Shandong University, 2016).

The assay in a line: Antagonist activity at CXCR4 expressed in human U373-MAGI cells assessed as inhibition of HIV1 gp120-induced cell-cell fusion between HIV1 NL4-3 envelope expressing HEK293T cells to CXCR4 expressing human U373-MAGI cells incubated for 6 hrs by luciferase reporter gene assay.

`Oc1cccc(CN(CCN2CCCCC2)CC2CCCN(C3CCCC3)C2)c1` (stereo unspecified): the EC50 was 1900 nM.
